Experimental data reported in ChEMBL document CHEMBL1135070, “Synthesis of a magnosalin derivative, 4-(3,4,5-trimethoxyphenyl)-6-(2,4,5-trimethoxyphenyl)-2-diethylaminopyrimidine, and the anti-angiogenic and anti-rheumatic effect on mice by oral administration” (Bioorg Med Chem Lett, 2002).

Experiments:
Mus musculus [1] = assay: Antirheumatic effect was determined in mice after oral administration of a dose of 30 mg/kg/day at day 14; assay type: functional; conditions: 336 h
HUVEC [2] = assay: Anti-proliferative effect on HUVEC induced by fetal bovine serum (FBS) at 0.1 uM concentration by measuring [3H]thymidine incorporation; assay type: functional, Homo sapiens
HUVEC [3] = assay: Anti-proliferative effect on human umbilical vein endothelial cells (HUVEC) induced by endothelial cell growth supplement (ECGS); assay type: functional, cell-based
HUVEC [4] = assay: Anti-proliferative effect on human umbilical vein endothelial cells (HUVEC) induced by basic fibroblast growth factor (bFGF) at 0.1 (uM) concentration; assay type: functional
HUVEC [5] = assay: Anti-proliferative effect on HUVEC induced by basic fibroblast growth factor (bFGF)at 0 uM concentration by measuring [3H]thymidine incorporation; assay type: functional, Homo sapiens
[6] = Anti-proliferative activity of KB cells from head and neck cancer cell line induced by fetal bovine serum (FBS) at 0.3 (uM) concentrations for [3H]- thymidine incorporation; assay type: functional, Homo sapiens, Cancer cell lines
HUVEC [7] = assay: Anti-proliferative effect on human umbilical vein endothelial cells (HUVEC) induced by ECGS at 0.3 uM concentration by measuring [3H]thymidine incorporation; assay type: functional
HUVEC [8] = assay: Anti-proliferative effect on human umbilical vein endothelial cells (HUVEC) induced by fetal bovine serum (FBS) at 1 uM concentration; assay type: functional
HUVEC [9] = assay: Anti-proliferative effect on HUVEC induced by basic fibroblast growth factor (bFGF)at 1 uM concentration by measuring [3H]thymidine incorporation; assay type: functional, Homo sapiens
Homo sapiens [10] = organism: Homo sapiens; assay: Anti-proliferative activity on normal human dermal fibroblasts (NHDF) induced by fetal bovine serum (FBS) at 1 uM concentration; assay type: functional
HUVEC [11] = assay: Anti-proliferative effect on human umbilical vein endothelial cells (HUVEC) induced by ECGS at 1 uM concentration by measuring [3H]thymidine incorporation; assay type: functional
Homo sapiens [12] = organism: Homo sapiens; assay: Anti-proliferative activity on NHDF induced by fetal bovine serum (FBS) at 1 uM concentration by measuring [3H]thymidine incorporation; assay type: functional
HUVEC [13] = assay: Anti-proliferative effect on HUVEC induced by basic fibroblast growth factor (bFGF)at 0.3 uM concentration by measuring [3H]thymidine incorporation; assay type: functional, Homo sapiens
[14] = Anti-proliferative activity of KB cells from head and neck cancer cell line induced by fetal bovine serum (FBS) at 0.1 (uM) concentrations for % inhibition; assay type: functional, Homo sapiens, Cancer cell lines
HUVEC [15] = assay: Anti-proliferative effect on human umbilical vein endothelial cells (HUVEC) induced by vascular endothelial growth factor (VEGF) at 0.1 (uM) concentration; assay type: functional
HUVEC [16] = assay: Anti-proliferative effect on HUVEC induced by vascular endothelial growth factor (VEGF)at 0.1 uM concentration by measuring [3H]thymidine incorporation; assay type: functional, Homo sapiens
Homo sapiens [17] = organism: Homo sapiens; assay: Anti-proliferative activity of normal human dermal fibroblasts (NHDF) induced by fetal bovine serum (FBS) at 0.3 uM concentration; assay type: functional
HUVEC [18] = assay: Anti-proliferative effect on human umbilical vein endothelial cells (HUVEC) induced by basic fibroblast growth factor (bFGF) at 1 (uM) concentration; assay type: functional
HUVEC [19] = assay: Anti-proliferative effect on human umbilical vein endothelial cells (HUVEC) induced by basic fibroblast growth factor (bFGF); assay type: functional, cell-based
HUVEC [20] = assay: Anti-proliferative effect on human umbilical vein endothelial cells (HUVEC) induced by ECGS at 0 uM concentration by measuring [3H]thymidine incorporation; assay type: functional
HUVEC [21] = assay: Anti-proliferative effect on HUVEC induced by vascular endothelial growth factor (VEGF)at 0.3 uM concentration by measuring [3H]thymidine incorporation; assay type: functional, Homo sapiens
[22] = Anti-proliferative activity of KB cells from head and neck cancer cell line induced by fetal bovine serum (FBS) at 0.1 (uM) concentrations for [3H]- thymidine incorporation; assay type: functional, Homo sapiens, Cancer cell lines
[23] = Anti-proliferative activity of KB cells from head and neck cancer cell line induced by fetal bovine serum (FBS) at 0.3 (uM) concentrations for % inhibition; assay type: functional, Homo sapiens, Cancer cell lines
Homo sapiens [24] = organism: Homo sapiens; assay: Anti-proliferative activity on NHDF induced by fetal bovine serum (FBS) at 0 uM concentration by measuring [3H]thymidine incorporation; assay type: functional
HUVEC [25] = assay: Anti-proliferative effect on human umbilical vein endothelial cells (HUVEC) induced by endothelial cell growth supplement (ECGS) at 1 (uM) concentration; assay type: functional
HUVEC [26] = assay: Anti-proliferative effect on human umbilical vein endothelial cells (HUVEC) induced by ECGS at 0.1 uM concentration by measuring [3H]thymidine incorporation; assay type: functional
HUVEC [27] = assay: Anti-proliferative effect on human umbilical vein endothelial cells (HUVEC) induced by vascular endothelial growth factor (VEGF) at 1 (uM) concentration; assay type: functional
HUVEC [28] = assay: Anti-proliferative effect on HUVEC induced by basic fibroblast growth factor (bFGF)at 0.1 uM concentration by measuring [3H]thymidine incorporation; assay type: functional, Homo sapiens
HUVEC [29] = assay: Anti-proliferative effect on human umbilical vein endothelial cells (HUVEC) induced by vascular endothelial growth factor (VEGF); assay type: functional, cell-based
HUVEC [30] = assay: Anti-proliferative effect on human umbilical vein endothelial cells (HUVEC) induced by basic fibroblast growth factor (bFGF) at 0.3 (uM) concentration; assay type: functional
[31] = Anti-proliferative activity of KB cells from head and neck cancer cell line induced by fetal bovine serum (FBS) at 1 (uM) concentration for % inhibition; assay type: functional, Homo sapiens, Cancer cell lines
Homo sapiens [32] = organism: Homo sapiens; assay: Anti-proliferative activity on normal human dermal fibroblasts (NHDF) induced by fetal bovine serum (FBS) at 0.1 uM concentration; assay type: functional
HUVEC [33] = assay: Anti-proliferative effect on human umbilical vein endothelial cells (HUVEC) induced by endothelial cell growth supplement (ECGS) at 0.3 (uM) concentration; assay type: functional
Homo sapiens [34] = organism: Homo sapiens; assay: Anti-proliferative activity on NHDF induced by fetal bovine serum (FBS) at 0.3 uM concentration by measuring [3H]thymidine incorporation; assay type: functional
HUVEC [35] = assay: Anti-proliferative effect on HUVEC induced by vascular endothelial growth factor (VEGF)at 1 uM concentration by measuring [3H]thymidine incorporation; assay type: functional, Homo sapiens
Homo sapiens [36] = organism: Homo sapiens; assay: Anti-proliferative activity on NHDF induced by fetal bovine serum (FBS) at 0.1 uM concentration by measuring [3H]thymidine incorporation; assay type: functional
HUVEC [37] = assay: Anti-proliferative effect on human umbilical vein endothelial cells (HUVEC) induced by fetal bovine serum (FBS); assay type: functional, cell-based
HUVEC [38] = assay: Anti-proliferative effect on HUVEC induced by vascular endothelial growth factor (VEGF)at 0 uM concentration by measuring [3H]thymidine incorporation; assay type: functional, Homo sapiens
[39] = Anti-proliferative activity of KB cells from head and neck cancer cell line induced by fetal bovine serum (FBS) at 0 uM concentrations for [3H]thymidine incorporation; assay type: functional, Homo sapiens, Cancer cell lines
HUVEC [40] = assay: Anti-proliferative effect on human umbilical vein endothelial cells (HUVEC) induced by vascular endothelial growth factor (VEGF) at 0.3 (uM) concentration; assay type: functional
HUVEC [41] = assay: Anti-proliferative effect on HUVEC induced by fetal bovine serum (FBS) at 0 uM concentration by measuring [3H]thymidine incorporation; assay type: functional, Homo sapiens
HUVEC [42] = assay: Anti-proliferative effect on HUVEC induced by fetal bovine serum (FBS) at 0.3 uM concentration by measuring [3H]thymidine incorporation; assay type: functional, Homo sapiens
HUVEC [43] = assay: Anti-proliferative effect on HUVEC induced by fetal bovine serum (FBS) at 1 uM concentration by measuring [3H]-thymidine incorporation; assay type: functional, Homo sapiens
[44] = Anti-proliferative activity of KB cells from head and neck cancer cell line induced by fetal bovine serum (FBS) at 1 (uM) concentrations for [3H]- thymidine incorporation; assay type: functional, Homo sapiens, Cancer cell lines
HUVEC [45] = assay: Anti-proliferative effect on human umbilical vein endothelial cells (HUVEC) induced by fetal bovine serum (FBS) at 0.1 (uM) concentration; assay type: functional
HUVEC [46] = assay: Anti-proliferative effect on human umbilical vein endothelial cells (HUVEC) induced by fetal bovine serum (FBS) at 0.3 (uM) concentration; assay type: functional
Mus musculus [47] = assay: Antirheumatic effect was determined in mice after combined treatment of TAS-202 (30 mg/kg/day) and indomethacin (1 mg/kg/day) at day 14; assay type: functional
Mus musculus [48] = assay: Antirheumatic effect was determined in mice after oral administration of a dose of 1 mg/kg/day at day 14; assay type: functional; conditions: 336 h

For `CCN(CC)c1nc(-c2cc(OC)c(OC)c(OC)c2)cc(-c2cc(OC)c(OC)cc2OC)n1`, the inhibition in vivo at 30 mg/kg/day (Mus musculus [1]) was 32.4%, the Activity (HUVEC [2]) was 437 c.p.m and the IC50 (HUVEC [3]) was 148 nM. For the same molecule, the Inhibition (HUVEC [4]) was 33.6%, the Activity (HUVEC [5]) was 9998.4 c.p.m and the Activity [6] was 15784.2 c.p.m. The Activity (HUVEC [7]) was 994.2 c.p.m, the inhibition at 1 µM (HUVEC [8]) was 79.4% and the Activity (HUVEC [9]) was 2969.9 c.p.m. The inhibition at 1 µM (Homo sapiens [10]) was -14.3%, the Activity (HUVEC [11]) was 359 c.p.m and the Activity (Homo sapiens [12]) was 2133.2 c.p.m. For the same molecule, the Activity (HUVEC [13]) was 6927.6 c.p.m, the Inhibition [14] was -0.3% and the Inhibition (HUVEC [15]) was 10.4%. It also gave an Activity (HUVEC [16]) of 1861.3 c.p.m, an inhibition at 0.3 µM (Homo sapiens [17]) of -18.4% and an Inhibition (HUVEC [18]) of 70.3%. For the same molecule, the IC50 (HUVEC [19]) was 561 nM, the Activity (HUVEC [20]) was 2810.3 c.p.m and the Activity (HUVEC [21]) was 1263.7 c.p.m. It also gave an Activity [22] of 18961.2 c.p.m, an Inhibition [23] of 16.5% and an Activity (Homo sapiens [24]) of 1867.1 c.p.m. It also gave an Inhibition (HUVEC [25]) of 87.2%, an Activity (HUVEC [26]) of 1634.5 c.p.m and an inhibition at 0.1 µM (HUVEC [26]) of 41.8%. The Inhibition (HUVEC [27]) was 78.4%, the Activity (HUVEC [28]) was 6638.9 c.p.m and the IC50 (HUVEC [29]) was 398 nM. For the same molecule, the Inhibition (HUVEC [30]) was 30.7%, the Inhibition [31] was 29.3% and the inhibition at 0.1 µM (Homo sapiens [32]) was -2.2%. It also gave an Inhibition (HUVEC [33]) of 64.6%, an Activity (Homo sapiens [34]) of 2209.9 c.p.m and an Activity (HUVEC [35]) of 448 c.p.m. The Activity (Homo sapiens [36]) was 1907.7 c.p.m, the IC50 (HUVEC [37]) was 199 nM and the Activity (HUVEC [38]) was 2077.3 c.p.m. The Activity [39] was 18896 c.p.m, the Inhibition (HUVEC [40]) was 39.2% and the Activity (HUVEC [41]) was 595.9 c.p.m. It also gave an Activity (HUVEC [42]) of 154.2 c.p.m, an Activity (HUVEC [43]) of 122.8 c.p.m and an Activity [44] of 13366.5 c.p.m. The Inhibition (HUVEC [45]) was 26.7% and the Inhibition (HUVEC [46]) was 74.1%.

`COc1ccc2c(c1)c(CC(=O)O)c(C)n2C(=O)c1ccc(Cl)cc1` [INDOMETHACIN] gave an Inhibition (Mus musculus [47]) of 75% and an inhibition in vivo at 1 mg/kg/day (Mus musculus [48]) of 22.2%.
